Data taken from patent US20230413822A1, “ORAL CANINE FEED AND METHODS FOR C[…] INFESTATIONS IN A CANINE” (In the Bowl Animal Health, Inc., priority 2021, published 2023).
Several values for one entry are separate records, joined by “and”; a condition that tells them apart may be missing. Equal values may be shown once.

Tests used:
[1] = Plasma concentration of mivorilaner in dogs given an oral liquid formulation daily (Example 1); assay type: in vivo; conditions: individual canines, Day 37, 0.75 mg/kg/day oral, days 0-29, 0.75 mg/kg/day
Excerpt: Methods: A pool of 14 dogs are to be preliminarily infested with ˜100 unfed adult C. felis in order to produce dogs that can suitably sustain a reliable infestation rate, defined as approximately 50% fleas being live at the end of a 48-hour period. The 12 dogs with the highest live flea counts are to be selected for inclusion in the study. The dogs are to be divided into a control group and a treatment group.
(§1) The dogs are to be housed individually during the study period and are to be fed a commercial dry dog food ration with ad libitum access to water.
Each dog in the treatment group is to receive by mouth a liquid formulation of isoxazoline. The dosage of 0.75 mg/kg is to be administered to the dogs on each of days 0-29.
Dogs in the control group are not to receive isoxazoline or any other tick control treatment. Each dog in the treatment group is to be offered its daily ration (dry food) and the individual doses of liquid formulation are to be administered after the individual dog has eaten at least 25% of its total daily ration. After receiving the dose of isoxazoline, the dogs are to be allowed to continue eating. This mimics incorporating the isoxazoline in feed. Each dog in the treatment group and the control group is to be experimentally infested with 50 adult ticks on test days 5, 12, 19, 28 and 35. Comb counts for live and moribund attached ticks are to be conducted on days 7, 14, 21, 30 and 37.

[2] = Plasma concentration of mivorilaner in dogs at various daily oral doses (Example 2); assay type: in vivo; conditions: average plasma
Excerpt: Methods: A pool of 46 dogs are to be preliminarily infested with ˜50 unfed adult R. sanguineus ticks in order to produce dogs that can suitably sustain a reliable infestation rate, defined as approximately 25% of attached ticks being live at the end of a 48-hour period. The 40 dogs with the highest live attached tick counts are to be selected for inclusion in the study. The dogs are to be randomly assigned to one of a control group and 4 treatment groups.
as §1
Each dog in a treatment group (test groups 2-5) is to receive by mouth a liquid formulation of isoxazoline.
Dogs in the control group are not to receive isoxazoline or any other tick control treatment. Each dog in the treatment group is to be offered its daily ration (dry food) and the individual doses of liquid formulation are to be administered after the individual dog has eaten at least 25% of its total daily ration. After receiving the dose of isoxazoline, the dogs are to be allowed to continue eating. Each dog in treatment groups 3-5 and the control group is to be experimentally infested with 50 adult ticks on test days −2, 5, 12, 19, 28, 35 and 42. Dogs in group 2 are to be infested with 50 adult ticks on test days 19, 28 and 35. Comb counts for live adult ticks are to be conducted on days 2, 7, 14, 21, 30, 37 and 44.
Sample results of the average plasma concentration of isoxazoline in a canine's blood at different dosage levels of mivorilaner are shown in TABLE 3 and FIG. 4.

O=C(CNC(=O)c1sc(C2=NO[C@@](c3cc(Cl)c(F)c(Cl)c3)(C(F)(F)F)C2)c2c1CCC2)NCC(F)F [Mivorilaner, 3-[(5S)-5-(3,5-dichloro-4-fluorophenyl)-5-(trifluoromethyl)-4,5-dihydroisoxazol-3-yl]-N-[2-[(2,2-difluoroethyl)amino]-2-oxoethyl]-5,6-dihydro-4H-cyclopenta[c]thiophene-1-carboxamide]
Mivorilaner Concentration [1]: 2070 ng/mL and 2410 ng/mL and 1880 ng/mL and 2010 ng/mL | Mivorilaner Concentration ([2]; Group 2 (0.125 mg/kg/day) oral fed, 72 hours after initial dose): 135.83 ng/mL | Mivorilaner Concentration ([2]; Group 2 (0.125 mg/kg/day) oral fed, 120 hours after initial dose): 212.63 ng/mL | Mivorilaner Concentration ([2]; Group 2 (0.125 mg/kg/day) oral fed, 168 hours after initial dose): 243.63 ng/mL | Mivorilaner Concentration ([2]; Group 2 (0.125 mg/kg/day) oral fed, 336 hours after initial dose): 383.75 ng/mL | Mivorilaner Concentration ([2]; Group 2 (0.125 mg/kg/day) oral fed, 504 hours after initial dose): 404.13 ng/mL | Mivorilaner Concentration ([2]; Group 2 (0.125 mg/kg/day) oral fed, 720 hours after initial dose): 419.50 ng/mL | Mivorilaner Concentration ([2]; Group 2 (0.125 mg/kg/day) oral fed, 888 hours after initial dose): 447.50 ng/mL | Mivorilaner Concentration ([2]; Group 2 (0.125 mg/kg/day) oral fed, 1056 hours after initial dose): 428.38 ng/mL | Mivorilaner Concentration ([2]; Group 2 (0.125 mg/kg/day) oral fed, 1224 hours after initial dose): 485.50 ng/mL | Mivorilaner Concentration ([2]; Group 2 (0.125 mg/kg/day) oral fed, 1440 hours after initial dose): 897.50 ng/mL | Mivorilaner Concentration ([2]; Group 3 (0.25 mg/kg/day) oral fed, 72 hours after initial dose): 283.13 ng/mL | Mivorilaner Concentration ([2]; Group 3 (0.25 mg/kg/day) oral fed, 120 hours after initial dose): 450.00 ng/mL | Mivorilaner Concentration ([2]; Group 3 (0.25 mg/kg/day) oral fed, 168 hours after initial dose): 579.13 ng/mL | Mivorilaner Concentration ([2]; Group 3 (0.25 mg/kg/day) oral fed, 336 hours after initial dose): 883.38 ng/mL | Mivorilaner Concentration ([2]; Group 3 (0.25 mg/kg/day) oral fed, 504 hours after initial dose): 877.75 ng/mL | Mivorilaner Concentration ([2]; Group 3 (0.25 mg/kg/day) oral fed, 720 hours after initial dose): 1015.63 ng/mL | Mivorilaner Concentration ([2]; Group 3 (0.25 mg/kg/day) oral fed, 888 hours after initial dose): 1003.88 ng/mL | Mivorilaner Concentration ([2]; Group 3 (0.25 mg/kg/day) oral fed, 1056 hours after initial dose): 945.13 ng/mL | Mivorilaner Concentration ([2]; Group 3 (0.25 mg/kg/day) oral fed, 1224 hours after initial dose): 1040.88 ng/mL | Mivorilaner Concentration ([2]; Group 3 (0.25 mg/kg/day) oral fed, 1440 hours after initial dose): 999.13 ng/mL | Mivorilaner Concentration ([2]; Group 4 (0.5 mg/kg/day) oral fed, 72 hours after initial dose): 474.25 ng/mL | Mivorilaner Concentration ([2]; Group 4 (0.5 mg/kg/day) oral fed, 120 hours after initial dose): 763.13 ng/mL | Mivorilaner Concentration ([2]; Group 4 (0.5 mg/kg/day) oral fed, 168 hours after initial dose): 888.00 ng/mL | Mivorilaner Concentration ([2]; Group 4 (0.5 mg/kg/day) oral fed, 336 hours after initial dose): 1457.88 ng/mL | Mivorilaner Concentration ([2]; Group 4 (0.5 mg/kg/day) oral fed, 504 hours after initial dose): 1633.25 ng/mL | Mivorilaner Concentration ([2]; Group 4 (0.5 mg/kg/day) oral fed, 720 hours after initial dose): 1873.75 ng/mL | Mivorilaner Concentration ([2]; Group 4 (0.5 mg/kg/day) oral fed, 888 hours after initial dose): 1986.25 ng/mL | Mivorilaner Concentration ([2]; Group 4 (0.5 mg/kg/day) oral fed, 1056 hours after initial dose): 2012.50 ng/mL | Mivorilaner Concentration ([2]; Group 4 (0.5 mg/kg/day) oral fed, 1224 hours after initial dose): 2318.75 ng/mL | Mivorilaner Concentration ([2]; Group 4 (0.5 mg/kg/day) oral fed, 1440 hours after initial dose): 2298.75 ng/mL | Mivorilaner Concentration ([2]; Group 5 (1.0 mg/kg/day) oral fed, 72 hours after initial dose): 951.25 ng/mL | Mivorilaner Concentration ([2]; Group 5 (1.0 mg/kg/day) oral fed, 120 hours after initial dose): 1510.00 ng/mL | Mivorilaner Concentration ([2]; Group 5 (1.0 mg/kg/day) oral fed, 168 hours after initial dose): 1793.75 ng/mL | Mivorilaner Concentration ([2]; Group 5 (1.0 mg/kg/day) oral fed, 336 hours after initial dose): 2691.25 ng/mL | Mivorilaner Concentration ([2]; Group 5 (1.0 mg/kg/day) oral fed, 504 hours after initial dose): 3016.25 ng/mL | Mivorilaner Concentration ([2]; Group 5 (1.0 mg/kg/day) oral fed, 720 hours after initial dose): 3756.25 ng/mL | Mivorilaner Concentration ([2]; Group 5 (1.0 mg/kg/day) oral fed, 888 hours after initial dose): 3861.25 ng/mL | Mivorilaner Concentration ([2]; Group 5 (1.0 mg/kg/day) oral fed, 1056 hours after initial dose): 4263.75 ng/mL | Mivorilaner Concentration ([2]; Group 5 (1.0 mg/kg/day) oral fed, 1224 hours after initial dose): 4838.75 ng/mL | Mivorilaner Concentration ([2]; Group 5 (1.0 mg/kg/day) oral fed, 1440 hours after initial dose): 4142.50 ng/mL
